This note sets out measurements from ChEMBL document CHEMBL5584238, “Psammaplin A analogues with modified disulfide bond targeting histone deacetylases: Synthesis and biological evaluation” (Eur J Med Chem, 2024).

The structures appear in SMILES notation. Active and inactive are the calls of the source. The rule behind the calls is not given here.

For assay [1], the system named is HCT-116. The assay can be described thus: Induction of cell cycle arrest in human HCT-116 cells assessed as accumulation of cells at S phase at 0.2 uM after 24 hrs by PI staining based flow cytometry analysis (reference value: 52.8%). It is filed as functional. For orientation: Flow cytometry measures light scatter and fluorescence of single cells or particles in a stream.

Assay [2] concerns HCT-116. The assay can be described thus: Induction of apoptosis in human HCT-116 cells assessed as early apoptotic cells at 0.2 uM incubated for 24 hrs by Annexin V-FITC/PI staining based flow cytometry analysis ( Rvb = 2.36%). It is filed as functional.
For assay [3], the system named is HCT-116. The assay can be described thus: Induction of cell cycle arrest in human HCT-116 cells assessed as accumulation of cells at G2/M phase at 0.2 uM after 24 hrs by PI staining based flow cytometry analysis (reference value: 9.3%). It is filed as functional.
The target in assay [4] is T1, Protein deacetylase HDAC6 (Mus musculus) (UniProt Q9Z2V5).
T1 sequence (whole entry): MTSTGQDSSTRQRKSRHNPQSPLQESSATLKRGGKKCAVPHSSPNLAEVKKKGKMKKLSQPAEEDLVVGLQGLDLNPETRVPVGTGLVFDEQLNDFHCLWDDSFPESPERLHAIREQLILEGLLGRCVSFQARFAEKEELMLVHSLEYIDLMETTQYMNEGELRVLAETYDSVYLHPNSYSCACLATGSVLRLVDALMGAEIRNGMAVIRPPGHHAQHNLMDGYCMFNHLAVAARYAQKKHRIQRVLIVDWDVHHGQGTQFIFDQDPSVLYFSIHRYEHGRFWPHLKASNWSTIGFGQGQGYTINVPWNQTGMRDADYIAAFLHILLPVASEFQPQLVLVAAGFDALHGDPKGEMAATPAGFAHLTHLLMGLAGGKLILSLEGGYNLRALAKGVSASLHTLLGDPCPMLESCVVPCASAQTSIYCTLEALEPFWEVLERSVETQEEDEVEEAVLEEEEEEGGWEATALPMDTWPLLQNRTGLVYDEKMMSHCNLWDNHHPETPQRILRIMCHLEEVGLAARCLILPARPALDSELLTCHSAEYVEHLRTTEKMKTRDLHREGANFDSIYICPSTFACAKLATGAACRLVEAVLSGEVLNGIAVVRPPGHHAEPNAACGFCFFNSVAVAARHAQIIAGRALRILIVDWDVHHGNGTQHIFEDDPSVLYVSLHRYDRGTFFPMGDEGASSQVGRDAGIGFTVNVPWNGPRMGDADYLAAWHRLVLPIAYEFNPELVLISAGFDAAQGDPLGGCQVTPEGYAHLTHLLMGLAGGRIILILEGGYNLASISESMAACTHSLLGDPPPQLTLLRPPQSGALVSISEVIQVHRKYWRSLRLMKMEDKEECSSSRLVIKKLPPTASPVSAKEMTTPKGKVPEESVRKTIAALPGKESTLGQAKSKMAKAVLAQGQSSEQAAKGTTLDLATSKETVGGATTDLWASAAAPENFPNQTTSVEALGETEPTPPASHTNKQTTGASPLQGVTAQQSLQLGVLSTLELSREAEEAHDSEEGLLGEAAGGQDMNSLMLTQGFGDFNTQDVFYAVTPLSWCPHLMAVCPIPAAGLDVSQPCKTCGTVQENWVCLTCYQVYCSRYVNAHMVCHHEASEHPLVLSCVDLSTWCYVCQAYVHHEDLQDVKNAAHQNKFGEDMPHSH
The experiment in a line: In vivo inhibition of HDAC6 in BALB/c nude mouse assessed as upregulation of tumor acetylated alpha-tubulin level at 5 mg/kg, ip administered every 2 days for 26 days by Western blotting analysis. It is filed as functional, organism-based. As to conditions: time 26.0 day. Background: Immunoblotting shows a protein as a band on a membrane.

The subject of assay [5] is HCT-116. The assay can be described thus: Induction of cell cycle arrest in human HCT-116 cells assessed as accumulation of cells at G1 phase at 0.1 uM after 24 hrs by PI staining based flow cytometry analysis (reference value: 37.9%). It is filed as functional.
Assay [6] has as its system HCT-116. The assay can be described thus: Induction of cell cycle arrest in human HCT-116 cells assessed as accumulation of cells at G2/M phase at 0.1 uM after 24 hrs by PI staining based flow cytometry analysis (reference value: 9.3%). The format is functional.
Assay [7] has as its system HCT-116. The assay can be described thus: Induction of apoptosis in human HCT-116 cells assessed as late apoptotic cells at 0.2 uM incubated for 24 hrs by Annexin V-FITC/PI staining based flow cytometry analysis ( Rvb = 5.32%). The format is functional.
Assay [8] deals with HCT-116. The assay can be described thus: Induction of apoptosis in human HCT-116 cells assessed as necrotic cells at 0.4 uM incubated for 24 hrs by Annexin V-FITC/PI staining based flow cytometry analysis ( Rvb = 0.24%). The format is functional.
Assay [9] addresses Histone deacetylase 1 (Homo sapiens, UniProt Q13547). The assay can be described thus: Inhibition of recombinant human HDAC1 using Boc-Lys(Ac)-AMC as substrate preincubated for 1 hr followed by substrate addition and measured after 2 hrs by microplate reader assay.
In assay [10] the test system is HCT-116. The experiment in a line: Induction of cell cycle arrest in human HCT-116 cells assessed as accumulation of cells at G1 phase at 0.2 uM after 24 hrs by PI staining based flow cytometry analysis (reference value: 37.9%). The format is functional.

Chain of Histone deacetylase 1 (Q13547 whole entry): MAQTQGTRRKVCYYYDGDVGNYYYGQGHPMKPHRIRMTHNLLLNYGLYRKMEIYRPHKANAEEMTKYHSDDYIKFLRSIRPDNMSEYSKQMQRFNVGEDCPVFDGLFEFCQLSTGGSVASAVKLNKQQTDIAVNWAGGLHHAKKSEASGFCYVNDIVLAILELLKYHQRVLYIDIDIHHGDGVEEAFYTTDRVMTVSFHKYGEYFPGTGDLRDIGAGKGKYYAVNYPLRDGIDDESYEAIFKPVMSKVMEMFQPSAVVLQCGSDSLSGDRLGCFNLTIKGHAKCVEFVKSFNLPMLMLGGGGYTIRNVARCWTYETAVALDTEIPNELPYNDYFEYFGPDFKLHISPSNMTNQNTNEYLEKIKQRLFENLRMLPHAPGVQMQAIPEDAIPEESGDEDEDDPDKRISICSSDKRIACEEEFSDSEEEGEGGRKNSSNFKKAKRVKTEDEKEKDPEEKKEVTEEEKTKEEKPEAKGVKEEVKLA

Regarding `O=C(NCC[Se][Se]CCNC(=O)/C(Cc1ccsc1)=N/O)/C(Cc1ccsc1)=N/O`, the Activity in assay [1] was found to be 36.99%; in [2] it was 47.1%; in [3], 51.82%; in [5] it was 50.11%; in assay [6], 31.05%; in assay [7], 7.96%. Moreover, the Activity in [8] is listed as 0.057%; in assay [10], 11.19%. The inhibition entry in assay [4] was “Active”. For the same compound, in [9], the IC50 (usually the concentration needed to halve the response being measured) was 770 nM.

`O=C(NCC[Se][Se]CCNC(=O)/C(Cc1ccc(O)c(Br)c1)=N/O)/C(Cc1ccc(O)c(Br)c1)=N/O`: the Activity in [1] is given as 10.45%; in [2], 46.1%; in assay [3], 74.56%; in [5], 32.08%; in assay [6] it was 47.92%; in assay [7], 12.9%. Further, the Activity in assay [8] is recorded as 0.082%; in [10], 15%. Moreover, the inhibition entry in [4] was “Active”. In addition, in [9], the IC50 was 170 nM.
